Experimental findings from publication PMC12402854 (Angewandte Chemie (International Ed. in English), 2025) are described below.

For the assay, the target named is T1, Xeroderma pigmentosum type B (XPB) (Homo sapiens, UniProt P19447).
T1 sequence (P19447 1-782): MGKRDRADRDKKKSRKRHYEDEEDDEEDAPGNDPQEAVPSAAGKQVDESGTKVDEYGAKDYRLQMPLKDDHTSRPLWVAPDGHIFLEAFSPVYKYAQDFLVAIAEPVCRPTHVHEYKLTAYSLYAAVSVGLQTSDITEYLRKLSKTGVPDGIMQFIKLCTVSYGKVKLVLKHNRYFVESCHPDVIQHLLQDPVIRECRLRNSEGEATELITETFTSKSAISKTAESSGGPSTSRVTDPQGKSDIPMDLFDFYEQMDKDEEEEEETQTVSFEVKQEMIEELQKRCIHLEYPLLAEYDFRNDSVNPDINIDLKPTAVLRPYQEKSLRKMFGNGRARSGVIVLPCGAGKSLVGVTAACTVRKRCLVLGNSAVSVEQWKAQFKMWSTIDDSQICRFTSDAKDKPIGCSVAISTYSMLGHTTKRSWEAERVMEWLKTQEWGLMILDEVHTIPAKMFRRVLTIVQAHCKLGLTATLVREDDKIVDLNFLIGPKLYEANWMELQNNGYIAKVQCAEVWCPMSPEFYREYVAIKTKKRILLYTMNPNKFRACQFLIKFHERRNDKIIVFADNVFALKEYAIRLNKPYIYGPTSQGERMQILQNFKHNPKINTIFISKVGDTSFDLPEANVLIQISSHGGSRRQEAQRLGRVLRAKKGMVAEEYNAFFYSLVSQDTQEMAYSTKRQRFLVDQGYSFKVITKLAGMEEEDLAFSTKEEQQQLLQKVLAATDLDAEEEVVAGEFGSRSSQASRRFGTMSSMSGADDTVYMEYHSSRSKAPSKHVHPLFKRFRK
The experiment in a line: live-cell covalent labelling, click to TAMRA, in-gel fluorescence. The assay is classed as cell-based.

One may read the EC50 as the concentration at which the effect is half-maximal. Lower therefore signals greater potency. For triptolide-alkyne [TL-alk], the EC50 was found to be 92.6 nM.
